Results on 5 compounds are retold here after ChEMBL document CHEMBL1201862, “PubChem BioAssay data set” (2004).

Calls of active or inactive are those of the source. A value given as a limit tells only on which side of the number the result lay.

For test [1], the target named is T1, Protein RecA (Mycobacterium tuberculosis, UniProt P9WHJ3).
T1 sequence (P9WHJ3 whole entry): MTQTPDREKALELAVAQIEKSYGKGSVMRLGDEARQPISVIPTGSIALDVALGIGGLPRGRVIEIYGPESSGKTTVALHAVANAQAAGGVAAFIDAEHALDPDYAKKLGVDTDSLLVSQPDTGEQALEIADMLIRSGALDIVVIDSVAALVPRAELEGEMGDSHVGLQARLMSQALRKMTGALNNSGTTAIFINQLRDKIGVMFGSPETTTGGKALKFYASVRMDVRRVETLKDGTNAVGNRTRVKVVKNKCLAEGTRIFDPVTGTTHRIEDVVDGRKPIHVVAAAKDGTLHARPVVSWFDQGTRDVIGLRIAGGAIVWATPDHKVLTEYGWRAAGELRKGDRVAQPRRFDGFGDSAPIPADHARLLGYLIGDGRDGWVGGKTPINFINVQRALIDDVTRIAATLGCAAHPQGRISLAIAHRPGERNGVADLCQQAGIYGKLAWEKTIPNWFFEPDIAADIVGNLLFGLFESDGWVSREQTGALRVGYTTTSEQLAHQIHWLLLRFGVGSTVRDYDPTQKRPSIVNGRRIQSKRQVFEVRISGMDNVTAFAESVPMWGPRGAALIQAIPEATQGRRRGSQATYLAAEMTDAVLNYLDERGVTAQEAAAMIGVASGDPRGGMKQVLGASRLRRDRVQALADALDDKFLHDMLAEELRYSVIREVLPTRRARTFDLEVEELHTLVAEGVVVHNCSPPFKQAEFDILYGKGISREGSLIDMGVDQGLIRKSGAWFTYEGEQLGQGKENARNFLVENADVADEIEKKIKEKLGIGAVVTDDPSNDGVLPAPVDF
The experiment in a line: Fluorescence Cell-Free Homogeneous Dose Retest to Identify Inhibitors of RecA-Intein Splicing Activity. [Related pubchem assays (depositor defined):AID2097, AID2223, AID489010, AID492950]. The format is functional.

For test [2], the target named is T2, Replicative DNA helicase DnaB (Mycobacterium tuberculosis, UniProt P9WMR3).
T2 sequence (P9WMR3 whole entry): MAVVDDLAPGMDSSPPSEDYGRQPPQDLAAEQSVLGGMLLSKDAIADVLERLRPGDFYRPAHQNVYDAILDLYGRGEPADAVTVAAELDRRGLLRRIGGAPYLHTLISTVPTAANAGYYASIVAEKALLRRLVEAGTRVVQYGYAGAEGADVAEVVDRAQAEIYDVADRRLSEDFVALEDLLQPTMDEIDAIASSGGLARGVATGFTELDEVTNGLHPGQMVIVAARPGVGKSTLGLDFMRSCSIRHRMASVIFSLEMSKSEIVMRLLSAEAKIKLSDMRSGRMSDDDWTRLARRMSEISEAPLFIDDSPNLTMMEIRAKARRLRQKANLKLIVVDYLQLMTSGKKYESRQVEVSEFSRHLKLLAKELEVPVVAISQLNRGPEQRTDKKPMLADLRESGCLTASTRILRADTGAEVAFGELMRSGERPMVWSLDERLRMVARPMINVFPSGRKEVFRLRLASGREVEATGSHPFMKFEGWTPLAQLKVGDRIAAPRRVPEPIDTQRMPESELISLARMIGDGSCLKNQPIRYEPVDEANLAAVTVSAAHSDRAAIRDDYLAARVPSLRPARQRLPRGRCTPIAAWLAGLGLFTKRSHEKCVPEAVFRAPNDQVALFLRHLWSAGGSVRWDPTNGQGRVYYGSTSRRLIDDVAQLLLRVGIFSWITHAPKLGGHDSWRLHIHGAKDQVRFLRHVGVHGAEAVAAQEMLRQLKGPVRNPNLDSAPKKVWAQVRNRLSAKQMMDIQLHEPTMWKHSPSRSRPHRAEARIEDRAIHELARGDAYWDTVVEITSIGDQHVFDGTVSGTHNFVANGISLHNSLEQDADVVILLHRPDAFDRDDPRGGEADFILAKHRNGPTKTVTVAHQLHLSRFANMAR
The experiment in a line: DnaB intein splicing inhibitors, dose response, biochemical, cell-free fluorescence (AID 449749). In kind it is functional.

The target of test [3] is Eukaryotic translation initiation factor 4E (Mus musculus, UniProt P63073). The test can be described thus: blockers of eIF4G binding by eIF4E – biochemical, TR-FRET, dose response (AID 855).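 Note: potency for disrupting eIF4E binding to eIF4GI seen as loss of FRET.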 In kind it is functional.
Chain of Eukaryotic translation initiation factor 4E (P63073 whole entry): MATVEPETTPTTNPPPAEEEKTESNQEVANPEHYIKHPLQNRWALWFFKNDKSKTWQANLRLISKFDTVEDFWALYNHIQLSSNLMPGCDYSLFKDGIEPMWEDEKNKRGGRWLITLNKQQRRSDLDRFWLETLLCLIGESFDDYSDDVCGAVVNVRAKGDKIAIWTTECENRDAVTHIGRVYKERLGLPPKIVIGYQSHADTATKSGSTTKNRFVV
Test [4] deals with HEK293. The test can be described thus: cells. The format is functional, cell-based. Particulars: Homo sapiens.
Test [5] has as its system HEK293. The experiment in a line: cells. The format is functional, cell-based. Particulars: Homo sapiens. The source holds these as a separate data set.
In test [6] the test system is HEK293. The test can be described thus: cells. In kind it is functional, cell-based. The note with it: Homo sapiens. This is another data set of the same source.
Test [7] has as its system HEK293. The experiment in a line: NOD2 signaling inhibitors in MDP-stimulated cells, cell-based, uHTS, luminescence (AID 2001). In kind it is functional. Particulars: Homo sapiens.
In test [8] the target is Phospholipase A2 (Homo sapiens, UniProt P04054). The format is functional.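 Note: confirmatory dose-response counterscreen on phospholipase A2, testing hits that came from an ultra-high-throughput screen for ATG4B inhibitors.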
Chain of Phospholipase A2 (P04054 whole entry): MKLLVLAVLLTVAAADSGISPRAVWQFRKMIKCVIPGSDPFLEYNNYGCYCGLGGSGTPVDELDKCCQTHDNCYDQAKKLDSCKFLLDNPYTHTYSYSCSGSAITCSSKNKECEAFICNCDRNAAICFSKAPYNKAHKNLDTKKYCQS
Test [9] addresses T3, Cysteine protease ATG4B (Homo sapiens, UniProt Q9Y4P1).
T3 sequence (Q9Y4P1 whole entry): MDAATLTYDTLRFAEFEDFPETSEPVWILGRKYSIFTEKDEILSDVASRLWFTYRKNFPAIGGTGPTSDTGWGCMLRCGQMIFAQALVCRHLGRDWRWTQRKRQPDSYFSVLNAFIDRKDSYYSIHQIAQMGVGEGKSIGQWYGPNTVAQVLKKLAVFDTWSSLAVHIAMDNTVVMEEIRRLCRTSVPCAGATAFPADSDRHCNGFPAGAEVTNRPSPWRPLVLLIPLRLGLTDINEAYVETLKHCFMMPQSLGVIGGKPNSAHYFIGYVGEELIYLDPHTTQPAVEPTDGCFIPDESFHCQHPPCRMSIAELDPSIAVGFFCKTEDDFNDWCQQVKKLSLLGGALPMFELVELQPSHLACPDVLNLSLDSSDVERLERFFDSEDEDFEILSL
In kind it is functional.

In test [10] the target is Nucleotide-binding oligomerization domain-containing protein 2 (Homo sapiens, UniProt Q9HC29). The experiment in a line: inhibition of NOD2-driven NF-kB reporter – cell-based, luminescence, uHTS, HEK293 (AID 1566). In kind it is functional.
Chain of Nucleotide-binding oligomerization domain-containing protein 2 (Q9HC29 whole entry, the tested form may be a part): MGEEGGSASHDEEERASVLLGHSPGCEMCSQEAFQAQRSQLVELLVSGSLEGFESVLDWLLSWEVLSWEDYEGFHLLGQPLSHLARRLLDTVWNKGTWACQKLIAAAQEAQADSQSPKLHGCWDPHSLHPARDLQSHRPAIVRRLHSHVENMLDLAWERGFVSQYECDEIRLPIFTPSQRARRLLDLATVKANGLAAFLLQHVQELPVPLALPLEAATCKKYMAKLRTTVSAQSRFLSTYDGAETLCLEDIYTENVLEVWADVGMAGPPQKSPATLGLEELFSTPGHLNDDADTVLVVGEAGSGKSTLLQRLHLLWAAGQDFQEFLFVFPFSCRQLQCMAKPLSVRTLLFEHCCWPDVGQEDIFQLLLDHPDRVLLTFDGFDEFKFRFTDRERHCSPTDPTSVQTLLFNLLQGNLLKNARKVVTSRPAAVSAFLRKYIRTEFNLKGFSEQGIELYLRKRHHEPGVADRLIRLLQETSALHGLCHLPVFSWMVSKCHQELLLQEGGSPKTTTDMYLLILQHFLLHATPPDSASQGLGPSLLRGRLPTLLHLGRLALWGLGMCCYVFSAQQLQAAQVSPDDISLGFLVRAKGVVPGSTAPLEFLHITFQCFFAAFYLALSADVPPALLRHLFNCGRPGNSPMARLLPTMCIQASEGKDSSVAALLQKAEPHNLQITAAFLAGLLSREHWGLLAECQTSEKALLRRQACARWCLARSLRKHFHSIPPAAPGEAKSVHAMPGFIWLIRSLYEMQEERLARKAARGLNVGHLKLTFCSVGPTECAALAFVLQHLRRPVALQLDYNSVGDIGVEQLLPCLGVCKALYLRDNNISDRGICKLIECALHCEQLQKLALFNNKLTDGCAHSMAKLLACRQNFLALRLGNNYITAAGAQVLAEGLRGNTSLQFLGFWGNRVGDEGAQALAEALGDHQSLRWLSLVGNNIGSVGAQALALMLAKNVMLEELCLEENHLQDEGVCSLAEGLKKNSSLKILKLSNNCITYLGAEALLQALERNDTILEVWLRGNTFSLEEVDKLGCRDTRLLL
Test [11] deals with HEK293. The test can be described thus: inhibition of NOD1-driven NF-kB reporter – cell-based, luminescence, uHTS, primary screen (AID 1578). In kind it is functional. Particulars: Homo sapiens.
Test [12] in a line: Vero E6 cell cytotoxicity, dose response, cytotoxicity control for non-replicating M. tuberculosis project, secondary assay (AID 492998). The format is functional, VeroE6. The note with it: Vero C1008.
Test [13] concerns the target T4, Microphthalmia-associated transcription factor (Homo sapiens, UniProt O75030).
T4 sequence (O75030 whole entry): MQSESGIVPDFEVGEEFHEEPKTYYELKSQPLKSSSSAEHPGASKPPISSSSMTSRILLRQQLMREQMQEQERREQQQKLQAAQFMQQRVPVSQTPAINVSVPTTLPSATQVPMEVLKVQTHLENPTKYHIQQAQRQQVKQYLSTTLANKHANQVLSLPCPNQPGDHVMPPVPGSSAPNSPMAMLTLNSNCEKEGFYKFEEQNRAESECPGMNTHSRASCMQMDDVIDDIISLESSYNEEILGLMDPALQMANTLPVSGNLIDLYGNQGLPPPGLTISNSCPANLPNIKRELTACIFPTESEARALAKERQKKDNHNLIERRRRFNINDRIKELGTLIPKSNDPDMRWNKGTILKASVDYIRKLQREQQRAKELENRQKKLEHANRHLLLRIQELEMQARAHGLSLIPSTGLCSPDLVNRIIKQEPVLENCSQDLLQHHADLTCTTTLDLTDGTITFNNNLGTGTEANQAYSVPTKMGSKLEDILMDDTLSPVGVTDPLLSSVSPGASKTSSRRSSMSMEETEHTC
The test can be described thus: reducers of TRPM1 reporter luminescence, concentration series – cell-based, SK-MEL-5, cherry-picked, set 3, MITF inhibitor project, dose response (AID 493073).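 Note: SK-MEL-5 melanoma cells with luciferase driven by the MITF target TRPM1 promoter.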 In kind it is functional.

Test [14] is described as follows: cells. In kind it is functional.
Test [15] is described as follows: THP-1 cell cytotoxicity, dose response, cytotoxicity control for non-replicating M. tuberculosis project (AID 489025). In kind it is functional.
A short description of test [16]: HepG2 cell cytotoxicity, dose response, cytotoxicity control for non-replicating M. tuberculosis project (AID 489018). Particulars: Mycobacterium tuberculosis. The format is functional.
Test [17] can be described thus: cells. The format is functional, cell-based.
The target in test [18] is Luciferin 4-monooxygenase (Photinus pyralis, UniProt P08659). The experiment in a line: inhibition of purified Photinus pyralis luciferase – biochemical, luminescence, dose response (AID 1891).
Chain of Luciferin 4-monooxygenase (P08659 whole entry): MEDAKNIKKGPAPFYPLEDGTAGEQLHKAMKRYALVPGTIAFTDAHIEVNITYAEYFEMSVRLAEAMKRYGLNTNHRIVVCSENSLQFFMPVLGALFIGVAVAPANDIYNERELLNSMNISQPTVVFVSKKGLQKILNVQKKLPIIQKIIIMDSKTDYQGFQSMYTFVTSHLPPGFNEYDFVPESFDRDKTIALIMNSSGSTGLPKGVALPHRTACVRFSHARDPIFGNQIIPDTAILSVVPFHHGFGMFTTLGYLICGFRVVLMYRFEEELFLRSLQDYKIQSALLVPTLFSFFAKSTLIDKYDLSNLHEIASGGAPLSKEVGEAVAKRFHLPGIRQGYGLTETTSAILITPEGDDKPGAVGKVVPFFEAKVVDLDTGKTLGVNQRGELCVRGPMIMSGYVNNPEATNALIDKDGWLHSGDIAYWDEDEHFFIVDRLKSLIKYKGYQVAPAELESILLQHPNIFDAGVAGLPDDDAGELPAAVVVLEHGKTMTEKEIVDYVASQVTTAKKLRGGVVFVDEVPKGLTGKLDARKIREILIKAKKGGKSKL
Test [19] is described as follows: cells. The format is functional, cell-based. This is another data set of the same source.
In test [20] the test system is INS1. The experiment in a line: INS-1E survival protection against cytokine death – cell-based, luminescence, retest, dose response (AID 449756).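 Note: cell death triggered by IL-1 beta plus TNF-alpha plus IFN-gamma mixture; protective hits raise ATP signal compared with cytokine alone wells.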 In kind it is functional. Particulars: Rattus norvegicus.
Test [21] can be described thus: Luminescence Cell-Based Dose Confirmation HTS to Identify Inhibitors of Platelet Dense Granule Release. [Related pubchem assays: 1663 (Primary HTS), 1678 (Summary of Project)]. The format is functional.

For the compound `N#Cc1c(Cl)c(Cl)c2nnc(-c3ccc(Br)cc3)n2c1Cl`, in test [1], the EC50 – broadly, the concentration that produces a half-maximal response – was 9.3 µM (active). Moreover, the AC50 (commonly the midpoint of the concentration-response curve, whichever way the signal moves) in [2] is 10.2 µM (active). For the same compound, the IC50 (as a rule, the midpoint of a concentration-inhibition curve) in test [3] was > 64 µM (inactive).

For `COc1ccc2nc(N3CCCCC3)c(/C=C3\SC(=S)NC3=O)cc2c1`, the IC50 in test [4] was 4.9 µM (active); in [5] it was > 20 µM (inactive); in test [6], 19.5 µM (active); in test [7], 4.26 µM (inactive); in [8], 2.47 µM (active); in test [9], 4.24 µM (active). Besides, the EC50 was 16.2 µM (active) in [10] and 2.17 µM (active) in test [11].

`Cc1ccc(NC(=O)c2ccc([N+](=O)[O-])o2)cc1S(=O)(=O)N1CCOCC1`: the CC50 (usually the concentration that lowers cell viability or growth by half) in [12] is 6.5 µM (active); in [15], 6.1 µM (active); in test [16], 9.48 µM (active). In addition, in test [13], the AC50 is 11.4 µM (active). Also, the concentration for half-maximal inhibition (IC50) in test [14] is 18.4 µM (active).

In the case of `COc1cccc(/C=N/NC(=O)c2ccoc2C)c1O`, the EC50 in [17] was 7.29 µM (active); in [18], 4.56 µM (active); in [19], 82.2 µM (active); in [21], 2.09 µM (active). The CC50 was 9.35 µM (active) in test [12], 4.17 µM (active) in test [15] and 6.69 µM (active) in test [16]. The AC50 in [20] is 3.85 µM (active).

As for `Cc1cc(C(=O)CSc2nnc(-c3ccco3)o2)c(C)n1-c1ccc2c(c1)OCCO2`, the IC50 in [4] is 13.3 µM (active); in [5], > 20 µM (inactive); in test [6] it was > 20 µM (inactive); in test [7] it was 14.5 µM (inactive). The EC50 in test [10] is > 20 µM (inactive); in [11], 5.37 µM (active).
